Read-outs that look alike come from different tables or passages of the source. Blank lines part the entries; values can stand above or below the molecule they belong to.
Legend:
[1] = target: T1, Leishmania mexicana arginase (LmARG) (Leishmania mexicana, UniProt Q6TUJ5); assay: Inhibitor profile of recombinant LmARG; type: biochemical; details: for block of LmARG activity (in words) / inhibition of LmARG / selective inhibition: preference for LmARG over HsARGI: 40 mM compound; for block of LmARG activity (in words) / inhibition of LmARG: 40 mM L-arginine substrate; for Type of Inhibition: Dixon plot analysis, or assumed where Ki was calculated from panel data; for inhibition: read-out: inhibition of LmARG; for Ki: Dixon plot analysis; for selective inhibition: preference for LmARG over HsARGI: 40 mM L-arginine, comparison of the two enzymes
human ARGI (HsARGI) [2] = target: T2, human ARGI (HsARGI) (Homo sapiens, UniProt P05089); assay: Inhibitor profile of recombinant HsARGI; type: biochemical; details: for block of HsARGI activity (in words) / inhibition of HsARGI / selective inhibition: preference for HsARGI over LmARG: 40 mM compound; for block of HsARGI activity (in words) / inhibition of HsARGI: 40 mM L-arginine substrate; for inhibition at 40000 µM: read-out: inhibition of HsARGI; for selective inhibition: preference for HsARGI over LmARG: 40 mM L-arginine, comparison of the two enzymes
T2 sequence (P05089 1-322): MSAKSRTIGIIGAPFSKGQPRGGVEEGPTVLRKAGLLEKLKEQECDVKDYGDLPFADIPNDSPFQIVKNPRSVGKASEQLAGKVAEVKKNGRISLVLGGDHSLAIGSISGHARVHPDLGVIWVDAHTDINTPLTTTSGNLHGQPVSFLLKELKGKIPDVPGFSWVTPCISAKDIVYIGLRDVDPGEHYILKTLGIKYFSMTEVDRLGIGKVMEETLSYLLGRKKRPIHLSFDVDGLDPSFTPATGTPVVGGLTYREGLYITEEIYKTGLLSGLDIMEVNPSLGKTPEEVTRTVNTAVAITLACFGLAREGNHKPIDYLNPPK

[3] = tested on: intact L. major promastigotes; details: ref Kropf et al., 2005; cited from earlier work
[4] = tested on: Leishmania mexicana promastigotes; assay: Parasite proliferation assay; type: cell-based; details: read-out: EC50 (concentration that inhibited growth by 50%); L. mexicana promastigotes, 5 days, alamarBlue; data not shown
L. major promastigotes = details: read-out: EC50 against L. major promastigotes; ref Reguera et al., 2009; cited from earlier work
[5] = target: T1, Leishmania mexicana arginase (LmARG); assay: LmARG kinetic parameters and substrate specificity; details: 50 mM, no L-arginine, 30 min; data not shown
human ARGI (HsARGI) [6] = target: T2, human ARGI (HsARGI); assay: HsARGI kinetic parameters and substrate specificity; type: biochemical; details: 50 mM, no L-arginine, 30 min
N=C(N)NCCC[C@H](N)C(=O)O = assay: purified protein, by the assay type; details: other: non-linear regression, L-arginine 7.8 – 50 mM; pH 9.5; 37.0 °C
[7] = target: T1, Leishmania mexicana arginase (LmARG); type: biochemical; details: co-activation with manganese and zinc; data not shown

Molecule: N=C(NO)NCC[C@H](N)C(=O)O [nor-NOHA, N^ω-hydroxy-nor-L-arginine]
block of LmARG activity (in words) [1]: completely blocked | Type of Inhibition [1]: Competitive | inhibition [1]: > 50% | block of HsARGI activity (in words) (human ARGI (HsARGI) [2]): completely blocked | inhibition at 40000 µM (human ARGI (HsARGI) [2]): > 50% | inhibition of conversion of arginine to ornithine by intact promastigotes [3]: does not inhibit

Molecule: N[C@@H](CCCCB(O)O)C(=O)O [ABH, 2(S)-amino-6-boronohexanoic acid]
block of LmARG activity (in words) [1]: completely blocked | Type of Inhibition [1]: Competitive | Ki ([1]; Ki vs. LmARG): 1.3 µM | inhibition [1]: > 50% | Ki (human ARGI (HsARGI) [2]): 3.5 µM | block of HsARGI activity (in words) (human ARGI (HsARGI) [2]): completely blocked | inhibition at 40000 µM (human ARGI (HsARGI) [2]): > 50%

Molecule: OB(O)O [boric acid]
inhibition of LmARG [1]: > 50% | inhibition of HsARGI (human ARGI (HsARGI) [2]): > 50% | selective inhibition: preference for HsARGI over LmARG (human ARGI (HsARGI) [2]): preferentially inhibited the HsARGI activity

Molecule: N=C(NO)NCCC[C@H](N)C(=O)O [NOHA, N^ω-hydroxy-L-arginine]
block of LmARG activity (in words) [1]: completely blocked | inhibition of LmARG [1]: > 50% | Type of Inhibition [1]: Competitive | Ki ([1]; read-out: Ki vs. LmARG): 85 µM | EC50 [4]: 6000 µM | block of HsARGI activity (in words) (human ARGI (HsARGI) [2]): completely blocked | inhibition of HsARGI (human ARGI (HsARGI) [2]): > 50% | EC50 (L. major promastigotes): 40 µM

Molecule: N[C@@H](CS)C(=O)O [L-cysteine]
selective inhibition: preference for LmARG over HsARGI [1]: greater potency toward LmARG | Type of Inhibition [1]: Competitive | Ki ([1]; Ki vs. LmARG): 11000 µM | inhibition [1]: > 50% | Ki (human ARGI (HsARGI) [2]): > 30000 µM

inhibition at 40000 µM (human ARGI (HsARGI) [2]): > 50%
Molecule: NCCCC[C@H](N)C(=O)O [L-lysine]
selective inhibition: preference for HsARGI over LmARG (human ARGI (HsARGI) [2]): preferentially inhibited the HsARGI activity

inhibition at 40000 µM (human ARGI (HsARGI) [2]): > 50%
Molecule: NCCC[C@H](N)C(=O)O [L-ornithine]
selective inhibition: preference for HsARGI over LmARG (human ARGI (HsARGI) [2]): preferentially inhibited the HsARGI activity

Molecule: NC(N)=NCCC[C@@H](N)C(=O)O [D-arginine]
activity as substrate of LmARG [5]: did not recognize | activity as substrate of HsARGI (human ARGI (HsARGI) [6]): no activity

Molecule: NCCCCN=C(N)N [agmatine]
activity as substrate of LmARG [5]: did not recognize | activity as substrate of HsARGI (human ARGI (HsARGI) [6]): no activity

Molecule: NC(CCS)C(=O)O (racemic) [DL-homocysteine]
inhibition of LmARG [1]: > 50% | selective inhibition: preference for LmARG over HsARGI [1]: greater potency toward LmARG

Molecule: Nc1nc2nc(N)[nH]c2c(=O)[nH]1 [8-aminoguanine]
selective inhibition: preference for LmARG over HsARGI [1]: greater potency toward LmARG | Type of Inhibition [1]: Uncompetitive | Ki ([1]; Ki vs. LmARG): < 2000 µM | inhibition [1]: > 50% | selective inhibition: preference for HsARGI over LmARG (human ARGI (HsARGI) [2]): preferentially inhibited the HsARGI activity

inhibition at 40000 µM (human ARGI (HsARGI) [2]): > 50%
Molecule: CC(C)C[C@H](N)C(=O)O [L-leucine]
selective inhibition: preference for HsARGI over LmARG (human ARGI (HsARGI) [2]): preferentially inhibited the HsARGI activity

Molecule: Leishmania mexicana arginase (LmARG) (Leishmania mexicana)
Km (N=C(N)NCCC[C@H](N)C(=O)O): 25 ± 4 mM

Molecule: N[C@@H](CCC(=O)N[C@H]1CSSC[C@H](NC(=O)CC[C@H](N)C(=O)O)C(=O)NCC(=O)NCCCNCCCCNC(=O)CNC1=O)C(=O)O [trypanothione]
inhibition of LmARG [1]: > 50% | Type of Inhibition [1]: Uncompetitive | Ki ([1]; read-out: Ki vs. LmARG): < 5000 µM | inhibition of HsARGI (human ARGI (HsARGI) [2]): > 50% | selective inhibition: preference for HsARGI over LmARG (human ARGI (HsARGI) [2]): preferentially inhibited the HsARGI activity

Molecule: N[C@@H](CSCCB(O)O)C(=O)O [BEC, S-(2-boronoethyl)-L-cysteine]
block of LmARG activity (in words) [1]: completely blocked | Type of Inhibition [1]: Competitive | Ki ([1]; Ki vs. LmARG): ~10 µM | inhibition [1]: > 50% | Ki (human ARGI (HsARGI) [2]): 14 µM | block of HsARGI activity (in words) (human ARGI (HsARGI) [2]): completely blocked

Molecule: [Cl-].[Cl-].[Zn+2] [zinc, ZnCl2]
LmARG activity on co-activation with manganese [7]: reduced activity to zero

From publication PMC3062745 (International journal for parasitology, 2011)
